Data on 28 molecules can be found in US8772480B2, “Inhibitors of PI3 kinase and/or mTOR” (priority 2009, dated 2014).

For one assay, the target named is PI3Kα (Homo sapiens (Human), UniProt P42336). To be noted: read-out: PI3Kα AlphaScreen ® Ki. A general note: Alpha assays give light when donor and acceptor beads are brought close together.
The test system of assay [1] is phosphorylation of Akt at Serine 473 in U87 MG cells. Nature of the assay: cells. As to conditions: Homo sapiens, U-87 MG, 2 h, read-out: U87Cell IC50, pAkt (Ser 473), U87 MG cells, two hours with compound.

Sequence of PI3Kα (P42336 whole entry): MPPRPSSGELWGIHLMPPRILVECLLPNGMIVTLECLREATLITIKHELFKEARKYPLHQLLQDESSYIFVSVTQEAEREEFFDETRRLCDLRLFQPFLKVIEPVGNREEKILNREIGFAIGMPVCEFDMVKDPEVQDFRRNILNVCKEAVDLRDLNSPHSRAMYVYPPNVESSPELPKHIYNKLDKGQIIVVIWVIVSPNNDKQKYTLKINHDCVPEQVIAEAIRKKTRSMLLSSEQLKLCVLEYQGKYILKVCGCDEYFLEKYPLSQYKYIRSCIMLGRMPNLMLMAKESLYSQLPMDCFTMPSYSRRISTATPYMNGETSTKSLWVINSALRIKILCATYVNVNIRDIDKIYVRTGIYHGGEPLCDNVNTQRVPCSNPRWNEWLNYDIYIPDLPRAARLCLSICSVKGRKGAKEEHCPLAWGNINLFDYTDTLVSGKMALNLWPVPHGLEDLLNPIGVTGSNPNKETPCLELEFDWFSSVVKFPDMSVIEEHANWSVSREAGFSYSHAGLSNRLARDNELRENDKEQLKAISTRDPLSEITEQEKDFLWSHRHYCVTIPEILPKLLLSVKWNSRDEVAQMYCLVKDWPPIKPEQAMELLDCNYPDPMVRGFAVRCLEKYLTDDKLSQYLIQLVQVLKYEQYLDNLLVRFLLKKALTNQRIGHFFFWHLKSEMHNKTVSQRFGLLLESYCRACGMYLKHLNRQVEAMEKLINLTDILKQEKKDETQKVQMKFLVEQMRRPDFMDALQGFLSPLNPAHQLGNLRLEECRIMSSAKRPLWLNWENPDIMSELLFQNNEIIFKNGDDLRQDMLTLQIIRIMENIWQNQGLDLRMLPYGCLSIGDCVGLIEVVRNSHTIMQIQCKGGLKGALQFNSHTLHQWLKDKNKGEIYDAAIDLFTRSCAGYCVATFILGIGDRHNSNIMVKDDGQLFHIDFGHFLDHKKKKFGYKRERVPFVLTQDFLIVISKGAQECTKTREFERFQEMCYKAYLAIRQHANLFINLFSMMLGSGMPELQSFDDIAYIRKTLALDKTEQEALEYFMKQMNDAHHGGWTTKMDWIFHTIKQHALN
Sequence of PI3Kα (P27986 whole entry partner): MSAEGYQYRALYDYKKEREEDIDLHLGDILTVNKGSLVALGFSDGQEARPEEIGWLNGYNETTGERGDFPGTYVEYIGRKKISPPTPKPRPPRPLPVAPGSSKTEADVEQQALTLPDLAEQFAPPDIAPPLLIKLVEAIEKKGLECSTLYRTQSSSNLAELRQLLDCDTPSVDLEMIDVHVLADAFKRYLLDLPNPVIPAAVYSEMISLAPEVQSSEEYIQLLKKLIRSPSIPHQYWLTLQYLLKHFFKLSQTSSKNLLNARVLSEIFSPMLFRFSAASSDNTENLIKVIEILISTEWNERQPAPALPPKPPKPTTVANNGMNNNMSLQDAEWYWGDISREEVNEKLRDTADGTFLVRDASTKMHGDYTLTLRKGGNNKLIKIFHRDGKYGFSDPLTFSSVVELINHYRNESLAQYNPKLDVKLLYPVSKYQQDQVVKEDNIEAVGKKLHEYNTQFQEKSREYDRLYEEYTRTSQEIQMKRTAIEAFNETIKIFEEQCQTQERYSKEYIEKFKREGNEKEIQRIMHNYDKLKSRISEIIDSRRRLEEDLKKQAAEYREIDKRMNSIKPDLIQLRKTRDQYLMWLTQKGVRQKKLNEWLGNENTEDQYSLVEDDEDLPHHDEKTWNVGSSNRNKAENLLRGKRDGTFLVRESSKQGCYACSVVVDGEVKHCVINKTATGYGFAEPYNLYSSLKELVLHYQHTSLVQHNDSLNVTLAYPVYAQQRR

As for `COc1ccc(Nc2ncc(N3CCC[C@H]3CO)cc2-c2nc(C)nc3[nH]cnc23)cn1` [Example 100, ((2S)-1-(6-(6-Methoxypyridin-3-Ylamino)-5-(2-Methyl-9H-Purin-6-yl)Pyridin-3-yl)Pyrrolidin-2-yl)Methanol], at PI3Kα, the inhibition constant Ki (as a rule, the dissociation constant of the complex between target and ligand, obtained from inhibition or displacement) was 29 nM. In assay [1], the IC50 – broadly, the point on the concentration scale where inhibition reaches its midpoint – came to 192 nM.
Turning to `COc1ccc(Nc2ncc(C(C)=O)nc2-c2cc(N)nc(C)n2)cn1` [Example 285, 1-(6-(6-Amino-2-Methylpyrimidin-4-yl)-5-(6-Methoxypyridin-3-Ylamino)Pyrazin-2-yl)Ethanone], at PI3Kα, the Ki was 103 nM. Also, in assay [1], the IC50 was more than 10000 nM.
In the case of `COc1ncc(Nc2ncc(CN3CCN(S(C)(=O)=O)CC3C(F)(F)F)cc2-c2nc(C)nc(N)n2)cc1F` (centres unmarked) [Example 313, 4-(2-(5-Fluoro-6-Methoxypyridin-3-Ylamino)-5-((4-(Methylsulfonyl)-2-(Trifluoromethyl)Piperazin-1-yl)Methyl)Pyridin-3-yl)-6-Methyl-1,3,5-Triazin-2-Amine], the Ki on PI3Kα was 7 nM. Moreover, the IC50 in assay [1] is more than 10000 nM.
In the same order, the values of `Cc1nc(N)nc(-c2cc(CN3CCN(S(C)(=O)=O)CC3)cnc2Nc2ccc3ccncc3c2)n1` [Example 326, N-(3-(4-Amino-6-Methyl-1,3,5-Triazin-2-yl)-5-((4-(Methylsulfonyl)Piperazin-1-yl)Methyl)Pyridin-2-yl)Isoquinolin-7-Amine] are 68 nM and 57 nM.
In the same order, the values of `COc1ccc(Nc2ncc(C(C)N3CCN(S(C)(=O)=O)CC3)cc2-c2nc(C)nc(N)n2)cn1` (centres unmarked) [Example 144, 4-(2-(6-Methoxypyridin-3-Ylamino)-5-(1-(4-(Methylsulfonyl)Piperazin-1-yl)Ethyl)Pyridin-3-yl)-6-Methyl-1,3,5-Triazin-2-Amine] are 7 nM and 26 nM.
Take `COc1ncc(Nc2ncc([C@@H](C)N3CCN(S(C)(=O)=O)CC3)cc2-c2cc(N)nc(C)n2)cc1F` [Example 305, 6-(2-((5-fluoro-6-methoxy-3-pyridinyl)amino)-5-((1R)-1-(4-(methylsulfonyl)-1-piperazinyl)ethyl)-3-pyridinyl)-2-methyl-4-pyrimidinamine]: the inhibition constant Ki on PI3Kα came out at 2 nM. The IC50 in assay [1] was 1 nM.
For `Cc1nc(N)nc(-c2cc([C@@H](C)N3CCN(S(C)(=O)=O)CC3)cnc2Nc2cc(F)c3cccnc3c2)n1` [Example 287, (R)—N-(3-(4-Amino-6-Methyl-1,3,5-Triazin-2-yl)-5-(1-(4-(Methylsulfonyl)Piperazin-1-yl)Ethyl)Pyridin-2-yl)-5-Fluoroquinolin-7-Amine], the Ki at PI3Kα came out at 20 nM. For the same molecule, in assay [1], the IC50 came to 204 nM.
Consider `Cc1nc(-c2cnccc2Nc2cccc3[nH]ncc23)c2nc[nH]c2n1` [Example 110, N-(3-(2-methyl-9H-purin-6-yl)pyridin-4-yl)-1H-indazol-4-amine], for which the Ki on PI3Kα is 264 nM. For the same molecule, the IC50 in assay [1] was 2420 nM.
With `COc1ccc(Nc2ncc(C(C)N3CCN(S(C)(=O)=O)CC3)cc2-c2nc(C)nc3[nH]cnc23)cn1` (centres unmarked) [Example 140, N-(6-methoxypyridin-3-yl)-3-(2-methyl-9H-purin-6-yl)-5-(1-(4-(methylsulfonyl)piperazin-1-yl)ethyl)pyridin-2-amine], on PI3Kα, the Ki is 6 nM. In addition, the IC50 in assay [1] was 34 nM.
For the molecule `COc1ccc(Nc2ncc(CN3CCN(S(=O)(=O)N(C)C)CC3)cc2-c2nc(C)nc3[nH]cnc23)cn1` [Example 88, 4-((6-(6-Methoxypyridin-3-Ylamino)-5-(2-Methyl-9H-Purin-6-yl)Pyridin-3-yl)Methyl)-N,N-Dimethylpiperazine-1-Sulfonamide], the Ki on PI3Kα was 7 nM. Further, the IC50 in assay [1] is 45 nM.
`Cc1nc(-c2cc(Cc3ccc(S(C)(=O)=O)cc3)cnc2Nc2ccc(N)nc2)c2nc[nH]c2n1` [Example 106, N5-(3-(2-methyl-9H-purin-6-yl)-5-(4-(methylsulfonyl)benzyl)pyridin-2-yl)pyridine-2,5-diamine]: at PI3Kα, the Ki amounted to 12 nM. The IC50 in assay [1] came out at 140 nM.
Regarding `COc1ccc(Nc2nc3ccccc3cc2-c2nc(C)nc(N)n2)cn1` [Example 238, 3-(4-Amino-6-Methyl-1,3,5-Triazin-2-yl)-N-(6-Methoxypyridin-3-yl)Quinolin-2-Amine], the Ki at PI3Kα turned out to be 45 nM. The IC50 in assay [1] turned out to be 245 nM.
In the same order, the values of `COc1ccc(Nc2ncc(CN3CCN(S(C)(=O)=O)C[C@H]3C)cc2-c2nc(C)nc(N)n2)cn1` [Example 158, (R)-4-(2-(6-Methoxypyridin-3-Ylamino)-5-((2-Methyl-4-(Methylsulfonyl)Piperazin-1-yl)Methyl)Pyridin-3-yl)-6-Methyl-1,3,5-Triazin-2-Amine] are 7 nM and 16 nM.
Take `COc1ccc(Nc2ncc(-c3ccnnc3)cc2-c2nc(C)nc(N)n2)cn1` [Example 252, 4-(2-(6-Methoxypyridin-3-Ylamino)-5-(Pyridazin-4-yl)Pyridin-3-yl)-6-Methyl-1,3,5-Triazin-2-Amine]: the Ki on PI3Kα turned out to be 60 nM. The IC50 in assay [1] stood at 151 nM.
With `COc1ccc(Nc2ncc(CNCc3ccncc3)cc2-c2nc(C)nc3[nH]cnc23)cn1` [Example 137, N-(6-methoxypyridin-3-yl)-3-(2-methyl-9H-purin-6-yl)-5-((pyridin-4-ylmethylamino)methyl)pyridin-2-amine], the Ki on PI3Kα is 40 nM. For the same molecule, the IC50 in assay [1] came to 181 nM.
In the same order, the values of `Cc1ccc(-c2nc(C)nc(N)n2)c(Nc2cncc(F)c2)n1` [Example 200, 4-(2-(5-Fluoropyridin-3-Ylamino)-6-Methylpyridin-3-yl)-6-Methyl-1,3,5-Triazin-2-Amine] are 180 nM and more than 10000 nM.
Regarding `Cc1nc(N)nc(-c2cc(CN3CCN(C(=O)N(C)C)CC3)cnc2Nc2cnc(O)c(F)c2)n1` [Example 160, 4-((5-(4-Amino-6-Methyl-1,3,5-Triazin-2-yl)-6-(5-Fluoro-6-Hydroxypyridin-3-Ylamino)Pyridin-3-yl)Methyl)-N,N-Dimethylpiperazine-1-Carboxamide], the Ki on PI3Kα amounted to 505 nM. Further, in assay [1], the IC50 worked out at 3170 nM.
For the molecule `COc1ccc(Nc2ncc([C@@H](C)N3CCN(S(C)(=O)=O)CC3)cc2-c2nc(C)nc(N)n2)cn1` [Example 146, (R)-4-(2-(6-Methoxypyridin-3-Ylamino)-5-(1-(4-(Methylsulfonyl)Piperazin-1-yl)Ethyl)Pyridin-3-yl)-6-Methyl-1,3,5-Triazin-2-Amine], the Ki at PI3Kα worked out at 6 nM. For the same molecule, the IC50 in assay [1] came to 7 nM.
For the molecule `Cc1nc(N)cc(-c2cccnc2Nc2cnc(Cl)c(NS(C)(=O)=O)c2)n1` [Example 304, N-(5-((3-(6-amino-2-methyl-4-pyrimidinyl)-2-pyridinyl)amino)-2-chloro-3-pyridinyl)methanesulfonamide], the Ki on PI3Kα turned out to be 29 nM. The IC50 in assay [1] was found to be 146 nM.
In the same order, the values of `COc1ccc(Nc2ncc(C(O)c3ccc(S(C)(=O)=O)cc3)cc2-c2nc(C)nc3[nH]cnc23)cn1` (centres unmarked) [Example 139, (6-(6-methoxypyridin-3-ylamino)-5-(2-methyl-9H-purin-6-yl)pyridin-3-yl)(4-(methylsulfonyl)phenyl)methanol] are 5 nM and 185 nM.
Take `COc1ncc(Nc2ncc(C(C)(C)N3CCOCC3)cc2-c2nc(C)nc(N)n2)cc1F` [Example 281, 4-(2-(5-Fluoro-6-Methoxypyridin-3-Ylamino)-5-(2-Morpholinopropan-2-yl)Pyridin-3-yl)-6-Methyl-1,3,5-Triazin-2-Amine]: the inhibition constant (Ki) on PI3Kα stood at 6 nM. The IC50 in assay [1] was 16 nM.
In the same order, the values of `Cc1nc(N)nc(-c2cc(CN3CCN(S(C)(=O)=O)CC3)cnc2Nc2cnc3c(c2)ncn3C)n1` [Example 203, N-(3-(4-Amino-6-Methyl-1,3,5-Triazin-2-yl)-5-((4-(Methylsulfonyl)Piperazin-1-yl)Methyl)Pyridin-2-yl)-3-Methyl-3H-Imidazo[4,5-B]Pyridin-6-Amine] are 16 nM and 562 nM.
Consider `Cc1cncc(Nc2ncccc2-c2nc(C)nc(N)n2)c1` [Example 174, 4-Methyl-6-(2-(5-Methylpyridin-3-Ylamino)Pyridin-3-yl)-1,3,5-Triazin-2-Amine], for which, at PI3Kα, the Ki came to 455 nM. The IC50 in assay [1] is more than 10000 nM.
With `COCCNc1cnc(Nc2ccc(OC)nc2)c(-c2nc(C)nc3[nH]cnc23)c1` [Example 93, N5-(2-methoxyethyl)-N2-(6-methoxypyridin-3-yl)-3-(2-methyl-9H-purin-6-yl)pyridine-2,5-diamine], the Ki at PI3Kα was found to be 104 nM. Further, in assay [1], the IC50 was 929 nM.
Consider `COc1ccc(Nc2nc(-c3ccc(F)cc3)ncc2-c2nc(C)nc(N)n2)cn1` [Example 125, 4-(2-(4-fluorophenyl)-4-(6-methoxypyridin-3-ylamino)pyrimidin-5-yl)-6-methyl-1,3,5-triazin-2-amine], for which the Ki on PI3Kα was determined as 504 nM. In addition, the IC50 in assay [1] is more than 10000 nM.
Turning to `COc1cc(Nc2ncc(CN3CCN(S(C)(=O)=O)C[C@@H]3C)cc2-c2nc(C)nc(N)n2)cnc1Cl` [Example 317, (S)-4-(2-(6-Chloro-5-Methoxypyridin-3-Ylamino)-5-((2-Methyl-4-(Methylsulfonyl)Piperazin-1-yl)Methyl)Pyridin-3-yl)-6-Methyl-1,3,5-Triazin-2-Amine], the Ki on PI3Kα came to 18 nM. Also, the IC50 in assay [1] came out at 12 nM.
For `Cc1nc(N)nc(-c2cc(Cl)cnc2Nc2cncc(F)c2)n1` [Example 257, 4-(5-Chloro-2-(5-Fluoropyridin-3-Ylamino)Pyridin-3-yl)-6-Methyl-1,3,5-Triazin-2-Amine], the Ki on PI3Kα worked out at 426 nM. For the same molecule, in assay [1], the IC50 was more than 10000 nM.
Turning to `COc1ncc(Nc2ncc(C3(O)CC3)cc2-c2nc(C)nc(N)n2)cc1F` [Example 298, 1-(5-(4-Amino-6-Methyl-1,3,5-Triazin-2-yl)-6-(5-Fluoro-6-Methoxypyridin-3-Ylamino)Pyridin-3-yl)Cyclopropanol], on PI3Kα, the Ki was 4 nM. Further, in assay [1], the IC50 came to 23 nM.
